What was measured:
Assay in all cases: KINOMEscan competitive binding, whole panel
panel of 203 kinases [1] = molecular target: T1, panel of 203 kinases (Homo sapiens, UniProt P08581); details: 10 µM, n=1; kinase MET; read-out: Percent inhibition MET
T1 construct: purchased DiscoverX (KINOMEscan)
Description: (§1) The kinases were expressed as fusions to T7 bacteriophage. This is a sensitive, competitive binding assay where test compounds were used to displace immobilized ATP-site binding probe ligands from kinases of interest. The amount of kinase that remained bound to the immobilized probe ligands on the solid support was quantified. Percentage inhibition data were was plotted on kinome trees using the web-based tool KinMap (http://www.kinhub.org/kinmap) ([60]).

panel of 203 kinases [2] = molecular target: T2, panel of 203 kinases (Homo sapiens, UniProt P36896); details: 10 µM, n=1; kinase ACVR1B; read-out: Percent inhibition ACVR1B
T2 construct: purchased DiscoverX (KINOMEscan)
T2 sequence (P36896 24-505): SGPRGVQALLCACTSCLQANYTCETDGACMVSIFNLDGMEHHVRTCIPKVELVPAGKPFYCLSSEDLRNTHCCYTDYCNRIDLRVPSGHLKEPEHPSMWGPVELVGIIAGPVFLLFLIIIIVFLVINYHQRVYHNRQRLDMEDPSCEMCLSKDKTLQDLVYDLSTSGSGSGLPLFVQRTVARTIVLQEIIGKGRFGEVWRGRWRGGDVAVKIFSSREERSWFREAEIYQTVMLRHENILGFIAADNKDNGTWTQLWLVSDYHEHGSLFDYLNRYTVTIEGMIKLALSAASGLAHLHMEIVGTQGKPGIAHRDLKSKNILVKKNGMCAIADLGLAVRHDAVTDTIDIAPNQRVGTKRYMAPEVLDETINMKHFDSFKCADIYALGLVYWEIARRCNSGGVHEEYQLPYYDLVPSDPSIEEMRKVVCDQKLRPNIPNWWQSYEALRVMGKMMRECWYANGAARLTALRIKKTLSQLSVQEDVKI
Description: as §1

panel of 203 kinases [3] = molecular target: T3, panel of 203 kinases (Homo sapiens, UniProt P45983); details: 10 µM, n=1; kinase JNK1; read-out: Percent inhibition JNK1
T3 construct: purchased DiscoverX (KINOMEscan)
T3 sequence (P45983 whole entry): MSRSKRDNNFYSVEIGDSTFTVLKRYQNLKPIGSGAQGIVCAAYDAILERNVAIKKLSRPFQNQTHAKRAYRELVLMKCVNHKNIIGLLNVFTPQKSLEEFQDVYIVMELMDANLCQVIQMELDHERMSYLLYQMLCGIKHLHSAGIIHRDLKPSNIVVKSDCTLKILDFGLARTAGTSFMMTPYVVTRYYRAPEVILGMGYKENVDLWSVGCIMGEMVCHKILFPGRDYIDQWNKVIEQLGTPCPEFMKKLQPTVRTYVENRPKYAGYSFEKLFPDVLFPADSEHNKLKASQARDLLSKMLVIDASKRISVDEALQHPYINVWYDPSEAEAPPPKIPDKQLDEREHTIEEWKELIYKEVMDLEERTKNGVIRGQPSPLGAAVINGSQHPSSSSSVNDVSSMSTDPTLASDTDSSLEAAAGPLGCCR
Description: as §1

panel of 203 kinases [4] = molecular target: T4, panel of 203 kinases (Homo sapiens, UniProt P51813); details: 10 µM, n=1; kinase BMX; read-out: Percent inhibition BMX
T4 construct: purchased DiscoverX (KINOMEscan)
T4 sequence (P51813 1-675): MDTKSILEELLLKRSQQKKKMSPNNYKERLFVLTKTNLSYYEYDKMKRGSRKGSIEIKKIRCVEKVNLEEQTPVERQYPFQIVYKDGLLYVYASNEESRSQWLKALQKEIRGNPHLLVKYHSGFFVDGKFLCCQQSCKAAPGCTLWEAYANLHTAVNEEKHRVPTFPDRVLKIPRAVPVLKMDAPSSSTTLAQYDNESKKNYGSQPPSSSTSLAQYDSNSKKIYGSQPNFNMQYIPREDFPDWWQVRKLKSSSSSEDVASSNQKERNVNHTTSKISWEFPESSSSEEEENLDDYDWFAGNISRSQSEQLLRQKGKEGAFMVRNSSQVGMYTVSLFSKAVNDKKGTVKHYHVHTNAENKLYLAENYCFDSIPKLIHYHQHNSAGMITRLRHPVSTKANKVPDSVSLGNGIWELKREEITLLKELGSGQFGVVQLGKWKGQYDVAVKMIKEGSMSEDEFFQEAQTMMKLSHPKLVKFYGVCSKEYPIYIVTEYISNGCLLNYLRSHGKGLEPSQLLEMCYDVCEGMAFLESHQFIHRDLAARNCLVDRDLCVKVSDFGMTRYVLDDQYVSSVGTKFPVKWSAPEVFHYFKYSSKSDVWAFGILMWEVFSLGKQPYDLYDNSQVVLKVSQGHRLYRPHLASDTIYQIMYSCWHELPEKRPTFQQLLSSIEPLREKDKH
Description: as §1

panel of 203 kinases [5] = molecular target: T5, panel of 203 kinases (Homo sapiens, UniProt P53778); details: 10 µM, n=1; kinase p38-gamma; read-out: Percent inhibition p38-gamma
T5 construct: purchased DiscoverX (KINOMEscan)
T5 sequence (P53778 1-367): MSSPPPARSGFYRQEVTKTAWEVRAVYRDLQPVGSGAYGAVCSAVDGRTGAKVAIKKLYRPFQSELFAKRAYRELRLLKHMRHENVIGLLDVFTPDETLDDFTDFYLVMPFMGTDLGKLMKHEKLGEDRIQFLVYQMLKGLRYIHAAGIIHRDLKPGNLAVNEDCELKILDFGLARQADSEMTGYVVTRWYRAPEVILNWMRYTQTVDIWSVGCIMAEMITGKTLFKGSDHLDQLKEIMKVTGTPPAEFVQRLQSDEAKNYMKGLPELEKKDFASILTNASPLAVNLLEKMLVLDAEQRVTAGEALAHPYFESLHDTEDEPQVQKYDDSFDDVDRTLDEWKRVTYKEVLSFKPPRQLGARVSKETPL
Description: as §1

panel of 203 kinases [6] = molecular target: T6, panel of 203 kinases (Homo sapiens, UniProt Q13188); details: 10 µM, n=1; kinase MST2; read-out: Percent inhibition MST2
T6 construct: purchased DiscoverX (KINOMEscan)
T6 sequence (Q13188 1-491): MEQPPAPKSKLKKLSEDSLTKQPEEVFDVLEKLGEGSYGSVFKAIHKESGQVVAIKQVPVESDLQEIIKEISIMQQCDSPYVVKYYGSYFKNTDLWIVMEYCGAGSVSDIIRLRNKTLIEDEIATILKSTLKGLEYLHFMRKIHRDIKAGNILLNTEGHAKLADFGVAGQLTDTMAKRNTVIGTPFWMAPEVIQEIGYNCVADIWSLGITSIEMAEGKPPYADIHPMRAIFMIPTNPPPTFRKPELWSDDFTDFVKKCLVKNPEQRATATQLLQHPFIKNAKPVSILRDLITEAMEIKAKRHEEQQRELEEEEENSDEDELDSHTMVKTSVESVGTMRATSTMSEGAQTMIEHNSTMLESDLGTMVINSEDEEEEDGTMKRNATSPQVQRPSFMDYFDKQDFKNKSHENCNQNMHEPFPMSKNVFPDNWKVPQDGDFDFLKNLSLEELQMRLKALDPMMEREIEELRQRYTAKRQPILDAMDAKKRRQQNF
Description: as §1

panel of 203 kinases [7] = molecular target: T7, panel of 203 kinases (Homo sapiens, UniProt Q15759); details: 10 µM, n=1; kinase p38-beta; read-out: Percent inhibition p38-beta
T7 construct: purchased DiscoverX (KINOMEscan)
T7 sequence (Q15759 whole entry): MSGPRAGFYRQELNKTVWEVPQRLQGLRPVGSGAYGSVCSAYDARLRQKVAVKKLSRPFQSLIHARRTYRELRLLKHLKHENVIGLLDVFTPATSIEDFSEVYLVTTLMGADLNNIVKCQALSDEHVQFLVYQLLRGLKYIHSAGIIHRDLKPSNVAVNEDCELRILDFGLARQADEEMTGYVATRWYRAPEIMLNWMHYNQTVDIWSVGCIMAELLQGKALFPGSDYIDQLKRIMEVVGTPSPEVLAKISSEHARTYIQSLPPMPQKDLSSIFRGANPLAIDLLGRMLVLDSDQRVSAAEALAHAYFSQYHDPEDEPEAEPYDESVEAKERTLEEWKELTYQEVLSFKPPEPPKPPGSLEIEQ
Description: as §1

panel of 203 kinases [8] = molecular target: T8, panel of 203 kinases (Homo sapiens, UniProt Q5VT25); details: 10 µM, n=1; kinase MRCKA; read-out: Percent inhibition MRCKA
T8 construct: purchased DiscoverX (KINOMEscan)
Description: as §1

panel of 203 kinases [9] = molecular target: T9, panel of 203 kinases (Homo sapiens, UniProt Q92918); details: 10 µM, n=1; kinase MAP4K1; read-out: Percent inhibition MAP4K1
T9 construct: purchased DiscoverX (KINOMEscan)
T9 sequence (Q92918 whole entry): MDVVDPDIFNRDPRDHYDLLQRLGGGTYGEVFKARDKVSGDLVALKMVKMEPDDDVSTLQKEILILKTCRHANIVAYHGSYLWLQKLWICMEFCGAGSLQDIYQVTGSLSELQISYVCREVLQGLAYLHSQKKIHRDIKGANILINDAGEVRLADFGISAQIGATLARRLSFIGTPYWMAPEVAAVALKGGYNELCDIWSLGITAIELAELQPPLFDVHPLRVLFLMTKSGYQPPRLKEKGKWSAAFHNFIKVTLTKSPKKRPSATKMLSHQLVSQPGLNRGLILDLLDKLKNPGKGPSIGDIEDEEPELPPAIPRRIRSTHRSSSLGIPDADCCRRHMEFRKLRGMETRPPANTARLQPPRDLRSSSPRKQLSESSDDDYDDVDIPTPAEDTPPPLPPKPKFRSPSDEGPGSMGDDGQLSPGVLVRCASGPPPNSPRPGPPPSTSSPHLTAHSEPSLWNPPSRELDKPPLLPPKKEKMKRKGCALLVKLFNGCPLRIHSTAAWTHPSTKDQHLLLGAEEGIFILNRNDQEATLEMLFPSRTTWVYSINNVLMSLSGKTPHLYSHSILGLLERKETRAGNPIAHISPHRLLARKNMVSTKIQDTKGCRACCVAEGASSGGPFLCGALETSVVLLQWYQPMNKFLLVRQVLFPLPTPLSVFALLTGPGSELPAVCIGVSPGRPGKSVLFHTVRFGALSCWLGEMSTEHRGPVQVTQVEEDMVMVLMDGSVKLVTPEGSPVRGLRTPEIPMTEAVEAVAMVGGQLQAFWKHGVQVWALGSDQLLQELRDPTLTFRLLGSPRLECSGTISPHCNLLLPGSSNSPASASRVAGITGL
Description: as §1

panel of 203 kinases [10] = molecular target: T10, panel of 203 kinases (Homo sapiens, UniProt Q96NX5); details: 10 µM, n=1; kinase CAMK1G; read-out: Percent inhibition CAMK1G
T10 construct: purchased DiscoverX (KINOMEscan)
T10 sequence (Q96NX5 whole entry): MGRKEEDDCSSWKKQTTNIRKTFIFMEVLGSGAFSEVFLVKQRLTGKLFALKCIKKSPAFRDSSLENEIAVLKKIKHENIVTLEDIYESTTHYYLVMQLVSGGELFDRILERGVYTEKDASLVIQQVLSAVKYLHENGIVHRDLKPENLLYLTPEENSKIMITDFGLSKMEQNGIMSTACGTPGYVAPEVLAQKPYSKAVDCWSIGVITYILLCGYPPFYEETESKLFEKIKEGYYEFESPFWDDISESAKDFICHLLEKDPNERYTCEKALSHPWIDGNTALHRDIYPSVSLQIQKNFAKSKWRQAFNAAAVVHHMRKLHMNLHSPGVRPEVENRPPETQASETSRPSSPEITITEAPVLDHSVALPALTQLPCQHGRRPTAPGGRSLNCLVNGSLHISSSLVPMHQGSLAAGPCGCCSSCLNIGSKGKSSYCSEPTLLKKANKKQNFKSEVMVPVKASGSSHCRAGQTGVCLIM
Description: as §1

T1 sequence (P08581 25-1390): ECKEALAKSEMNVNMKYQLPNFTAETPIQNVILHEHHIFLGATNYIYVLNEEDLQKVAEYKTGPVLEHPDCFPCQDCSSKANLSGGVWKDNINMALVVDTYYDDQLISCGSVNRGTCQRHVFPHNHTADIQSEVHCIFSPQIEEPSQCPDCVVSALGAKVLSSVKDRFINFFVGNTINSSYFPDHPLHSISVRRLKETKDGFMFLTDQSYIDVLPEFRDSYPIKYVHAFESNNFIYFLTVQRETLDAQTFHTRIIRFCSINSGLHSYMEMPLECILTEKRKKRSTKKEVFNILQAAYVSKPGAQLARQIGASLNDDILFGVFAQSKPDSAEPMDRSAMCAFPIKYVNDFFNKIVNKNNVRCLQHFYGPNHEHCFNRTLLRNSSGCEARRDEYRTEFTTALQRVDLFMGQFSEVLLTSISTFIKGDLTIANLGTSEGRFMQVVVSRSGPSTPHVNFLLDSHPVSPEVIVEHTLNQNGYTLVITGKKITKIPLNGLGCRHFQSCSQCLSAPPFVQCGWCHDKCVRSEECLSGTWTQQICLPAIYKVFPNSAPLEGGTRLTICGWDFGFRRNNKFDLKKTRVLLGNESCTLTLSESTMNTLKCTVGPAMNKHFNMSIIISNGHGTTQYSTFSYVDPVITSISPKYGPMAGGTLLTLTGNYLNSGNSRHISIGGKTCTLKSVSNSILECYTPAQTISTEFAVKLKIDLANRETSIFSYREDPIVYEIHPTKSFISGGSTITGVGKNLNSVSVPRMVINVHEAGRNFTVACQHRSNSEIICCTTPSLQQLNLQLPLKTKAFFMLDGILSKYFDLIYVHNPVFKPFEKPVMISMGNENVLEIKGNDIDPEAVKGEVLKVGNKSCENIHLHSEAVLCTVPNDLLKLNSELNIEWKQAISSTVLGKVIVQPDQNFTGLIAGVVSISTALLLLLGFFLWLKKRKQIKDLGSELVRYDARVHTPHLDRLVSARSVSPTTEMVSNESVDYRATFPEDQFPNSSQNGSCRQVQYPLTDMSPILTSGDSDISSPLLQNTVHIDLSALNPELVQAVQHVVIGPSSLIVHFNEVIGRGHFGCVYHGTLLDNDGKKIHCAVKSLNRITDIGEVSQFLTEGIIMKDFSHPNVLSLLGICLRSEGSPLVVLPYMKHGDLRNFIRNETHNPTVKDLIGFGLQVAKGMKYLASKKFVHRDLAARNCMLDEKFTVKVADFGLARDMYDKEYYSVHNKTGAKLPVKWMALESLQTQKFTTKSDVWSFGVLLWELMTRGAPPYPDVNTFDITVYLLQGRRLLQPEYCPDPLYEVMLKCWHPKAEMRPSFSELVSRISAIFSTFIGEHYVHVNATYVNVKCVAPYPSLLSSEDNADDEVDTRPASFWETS

Row | Compound | inhibition at 10 µM (panel of 203 kinases [1]) | inhibition at 10 µM (panel of 203 kinases [2]) | inhibition at 10 µM (panel of 203 kinases [3]) | inhibition at 10 µM (panel of 203 kinases [4]) | inhibition at 10 µM (panel of 203 kinases [5]) | inhibition at 10 µM (panel of 203 kinases [6]) | inhibition at 10 µM (panel of 203 kinases [7]) | inhibition at 10 µM (panel of 203 kinases [8]) | inhibition at 10 µM (panel of 203 kinases [9]) | inhibition at 10 µM (panel of 203 kinases [10])
1 | CN1CCN(c2ccc(Nc3nccc(-c4cnn5ncccc45)n3)cc2C#N)CC1 [Compound 1] | 0% | 77.1% | 100% | 0% | 0% | 100% | 0% | 0% | 99.5% | 90.5%
2 | COc1ccc(Nc2nccc(-c3cnn4ncccc34)n2)cc1 [Compound 2] | 68.8% | 0% | 98.5% | 0% | 88.4% | 89.9% | 0% | 0% | 0% | 71.5%
3 | Cc1ccc(O)cc1Nc1ccnc(Nc2cccc(C(N)=O)c2)n1 [Compound 3] | 0% | 96.5% | 76.7% | – | 0% | 94.4% | 94.8% | 0% | 83.9% | 0%
4 | Cc1ccc(O)cc1N(C)c1ccnc(Nc2cccc(S(N)(=O)=O)c2)n1 [Compound 4] | 90.2% | 99% | 87.1% | 100% | 93% | 99.2% | 100% | 87% | 99.5% | 0%
5 | Fc1cccc(COc2ccc(Nc3ncnc4c3CN(CCN3CCOCC3)CC4)cc2Cl)c1 [Compound 6] | 0% | 0% | 0% | 0% | 0% | 0% | 0% | 0% | 0% | 0%
6 | COc1cc(Nc2nccc(-c3sc(N)nc3-c3cccc(NC(=O)c4c(F)cccc4F)c3)n2)cc(OC)c1OC [Compound 7] | 99.6% | 74.9% | 100% | 100% | 0% | 99.9% | 100% | 100% | 96.3% | 69.4%
7 | C[C@@H](Oc1cc(-c2cnc3ccccn23)sc1C(N)=O)c1ccccc1Cl [Compound 8] | 78.4% | 0% | 0% | 0% | 0% | 81% | 0% | 0% | 0% | 0%
8 | c1ccc(COc2cccc(-c3ccnc4[nH]ccc34)c2)cc1 [Compound 9] | 0% | 0% | 0% | 0% | 0% | 0% | 0% | 0% | 0% | 0%
9 | Clc1ccc(Nc2ncc(-c3ccccc3)s2)cc1 [Compound 10] | 0% | 0% | 0% | 0% | 0% | 0% | 0% | 0% | 0% | 0%
10 | Nc1ncc2c(-c3ccncc3)c[nH]c2n1 [Compound 11] | 0% | 0% | 77.1% | 0% | 0% | 86.8% | 0% | 0% | 0% | 0%
